Laboratory results: PubChem BioAssay AID248 (DTP/NCI, 2004)
“And” between values parts separate entries of the source, which are not always exact repeats. Equal values may be shown once. Inconclusive results and toxic doses are left out. No stated cut-off is given here; in the data, active means T/C of 150% or more; inactive means T/C below 125%.

Test system: L1210 leukemia ip in BDF1 mice, survival T/C
Assay: NCI In Vivo Anticancer Drug Screen. Data for tumor model L1210 Leukemia (intraperitoneal) in B6D2F1 (BDF1) mice
Settings: endpoint: mean survival time, higher = longer survival
Method in brief: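 Antitumor effect is assessed in tumor-bearing animals. Survival in the compound arm is compared with a vehicle-dosed control arm and expressed as their quotient.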

[1] = dose: 100.0 mg/kg/injection, schedule: Q04DX003 (ip), vehicle: Klucel (hydroxypropylcellulose) (HPC)
[2] = dose: 200.0 mg/kg/injection, schedule: Q04DX003 (ip), vehicle: Klucel (hydroxypropylcellulose) (HPC)
[3] = dose: 100.0 mg/kg/injection, schedule: Q04DX002 (ip), vehicle: Klucel (hydroxypropylcellulose) (HPC)
[4] = dose: 200.0 mg/kg/injection, schedule: Q04DX002 (ip), vehicle: Klucel (hydroxypropylcellulose) (HPC)
[5] = dose: 400.0 mg/kg/injection, schedule: Q04DX002 (ip), vehicle: Klucel (hydroxypropylcellulose) (HPC)
[6] = dose: 100.0 mg/kg/injection, schedule: Q01DX001 (ip), vehicle: saline
[7] = dose: 200.0 mg/kg/injection, schedule: Q01DX001 (ip), vehicle: saline
[8] = dose: 400.0 mg/kg/injection, schedule: Q01DX001 (ip), vehicle: saline
[9] = dose: 100.0 mg/kg/injection, schedule: Q04DX003 (ip), vehicle: saline
[10] = dose: 200.0 mg/kg/injection, schedule: Q04DX003 (ip), vehicle: saline

Measured: T/C

CC([NH-])C(=O)O.CC([NH-])C(=O)O.CC([NH-])C(=O)O.[Co+3] (configuration not stated)
inactive: dose: 25.0 mg/kg/injection, schedule: Q04DX002 (ip), vehicle: saline with Tween-80 115 % of control | dose: 50.0 mg/kg/injection, schedule: Q01DX009 (ip), vehicle: water 103 % of control | dose: 50.0 mg/kg/injection, schedule: Q04DX002 (ip), vehicle: saline with Tween-80 98 % of control | dose: 100.0 mg/kg/injection, schedule: Q01DX009 (ip), vehicle: water 118 % of control | dose: 100.0 mg/kg/injection, schedule: Q04DX002 (ip), vehicle: saline with Tween-80 115 % of control

O=C(O)CNC(=O)c1cccc([N+](=O)[O-])c1
inactive: [1] 99 % of control | [2] 101 % of control | dose: 400.0 mg/kg/injection, schedule: Q04DX003 (ip), vehicle: Klucel (hydroxypropylcellulose) (HPC) 94 % of control

Cc1ccc(C(=O)/C=C(\C(=O)c2ccccc2)c2ccccc2)cc1C
inactive: [3] 97 % of control | [4] 93 % of control | [5] 97 % of control

CC(=O)Oc1ccc2c(c1)C=CC1C2CCC2(C)/C(=N/NC(N)=S)CCC12 (configuration not stated)
inactive: [3] 100 % of control | [4] 90 % of control | [5] 116 % of control

C/C=C/C[n+]1cccc2ccccc21
inactive: dose: 6.25 mg/kg/injection, schedule: Q01DX009 (ip), vehicle: saline 92 % of control | dose: 6.25 mg/kg/injection, schedule: Q04DX003 (ip), vehicle: saline 98 % of control | dose: 12.5 mg/kg/injection, schedule: Q01DX009 (ip), vehicle: saline 95 % of control | dose: 12.5 mg/kg/injection, schedule: Q04DX003 (ip), vehicle: saline 101 % of control | dose: 25.0 mg/kg/injection, schedule: Q01DX009 (ip), vehicle: saline 100 % of control | dose: 25.0 mg/kg/injection, schedule: Q04DX003 (ip), vehicle: saline 101 % of control

CCN(Cc1ccc(Cl)c(Cl)c1)c1ccc2nc(N)nc(N)c2c1C
inactive: dose: 1.56 mg/kg/injection, schedule: Q01DX009 (ip), vehicle: water 110 % of control | dose: 3.12 mg/kg/injection, schedule: Q01DX009 (ip), vehicle: water 103 % of control and 110 % of control | dose: 6.25 mg/kg/injection, schedule: Q01DX009 (ip), vehicle: water 116 % of control and 124 % of control | dose: 12.5 mg/kg/injection, schedule: Q01DX009 (ip), vehicle: water 121 % of control | dose: 25.0 mg/kg/injection, schedule: Q01DX009 (ip), vehicle: water 110 % of control

C1CN=C2CCCN2C1
inactive: dose: 18.75 mg/kg/injection, schedule: Q01DX009 (ip), vehicle: saline 100 % of control | dose: 37.5 mg/kg/injection, schedule: Q01DX009 (ip), vehicle: saline 97 % of control

CC(C)(C)C(Br)C(=O)Nc1ccccc1 (configuration not stated)
inactive: [6] 104 % of control | [7] 102 % of control | [8] 102 % of control

O=[N+]([O-])c1cccc(C=Nc2ccc(CCO)cc2)c1
inactive: [3] 104 % of control | [4] 121 % of control | [5] 107 % of control

CNC(=S)N/N=C/C(C)=N/NC(=S)NC
inactive: dose: 4.0 mg/kg/injection, schedule: Q01DX Z (ip), vehicle: carboxymethylcellulose (CMC) 102 % of control | dose: 8.0 mg/kg/injection, schedule: Q01DX Z (ip), vehicle: carboxymethylcellulose (CMC) 97 % of control | dose: 10.0 mg/kg/injection, schedule: Q04DX003 (ip), vehicle: saline 98 % of control | dose: 16.0 mg/kg/injection, schedule: Q01DX Z (ip), vehicle: carboxymethylcellulose (CMC) 95 % of control and 103 % of control | dose: 20.0 mg/kg/injection, schedule: Q04DX003 (ip), vehicle: saline 100 % of control | dose: 31.0 mg/kg/injection, schedule: Q01DX Z (ip), vehicle: carboxymethylcellulose (CMC) 95 % of control | dose: 40.0 mg/kg/injection, schedule: Q04DX003 (ip), vehicle: saline 96 % of control | dose: 50.0 mg/kg/injection, schedule: Q01DX001 (ip), vehicle: saline 86 % of control | dose: 62.0 mg/kg/injection, schedule: Q01DX Z (ip), vehicle: carboxymethylcellulose (CMC) 93 % of control and 100 % of control | dose: 80.0 mg/kg/injection, schedule: Q04DX003 (ip), vehicle: saline 93 % of control | [6] 95 % of control | dose: 125.0 mg/kg/injection, schedule: Q01DX Z (ip), vehicle: carboxymethylcellulose (CMC) 90 % of control and 91 % of control | [7] 89 % of control | dose: 250.0 mg/kg/injection, schedule: Q01DX Z (ip), vehicle: carboxymethylcellulose (CMC) 93 % of control | [8] 95 % of control | dose: 500.0 mg/kg/injection, schedule: Q01DX Z (ip), vehicle: carboxymethylcellulose (CMC) 90 % of control | dose: 1000.0 mg/kg/injection, schedule: Q01DX Z (ip), vehicle: carboxymethylcellulose (CMC) 90 % of control | dose: 125.0 micrograms/kg/injection, schedule: Q01DX009 (ip), vehicle: saline 101 % of control | dose: 250.0 micrograms/kg/injection, schedule: Q01DX009 (ip), vehicle: saline 98 % of control | dose: 500.0 micrograms/kg/injection, schedule: Q01DX009 (ip), vehicle: saline 98 % of control | dose: 1000.0 micrograms/kg/injection, schedule: Q01DX009 (ip), vehicle: saline 107 % of control

OC1OC(CCl)C(Cl)C(O)C1O (configuration not stated)
inactive: [9] 106 % of control | [10] 101 % of control | dose: 400.0 mg/kg/injection, schedule: Q04DX003 (ip), vehicle: saline 98 % of control

C=C1C(=O)OC2C1C(O)CC(C)(O)C1CC=C(C)C21 (configuration not stated)
inactive: dose: 100.0 mg/kg/injection, schedule: Q04DX002 (ip), vehicle: saline 102 % of control | dose: 200.0 mg/kg/injection, schedule: Q04DX002 (ip), vehicle: saline 102 % of control | dose: 400.0 mg/kg/injection, schedule: Q04DX002 (ip), vehicle: saline 94 % of control

CCOC(=O)N1C=Cc2ccccc2C1C#N (configuration not stated)
inactive: dose: 100.0 mg/kg/injection, schedule: Q01DX001 (ip), vehicle: carboxymethylcellulose (CMC) 124 % of control | dose: 200.0 mg/kg/injection, schedule: Q01DX001 (ip), vehicle: carboxymethylcellulose (CMC) 98 % of control | dose: 400.0 mg/kg/injection, schedule: Q01DX001 (ip), vehicle: carboxymethylcellulose (CMC) 93 % of control

CCCCCCCCCCCCC(CC(=O)O)C(=O)N(C)CC(O)C(O)C(O)C(O)CO (configuration not stated)
inactive: dose: 50.0 mg/kg/injection, schedule: Q01DX009 (ip), vehicle: saline 106 % of control | dose: 100.0 mg/kg/injection, schedule: Q01DX009 (ip), vehicle: saline 100 % of control | dose: 200.0 mg/kg/injection, schedule: Q01DX009 (ip), vehicle: saline 110 % of control

CC(C)(O)C(Cl)(Cl)Cl
inactive: [1] 101 % of control | [9] 98 % of control | [2] 95 % of control | [10] 100 % of control

CN(C)CSc1ccccc1
inactive: dose: 10.0 mg/kg/injection, schedule: Q01DX001 (ip), vehicle: saline 101 % of control | dose: 20.0 mg/kg/injection, schedule: Q01DX001 (ip), vehicle: saline 110 % of control | dose: 40.0 mg/kg/injection, schedule: Q01DX001 (ip), vehicle: saline 104 % of control | dose: 80.0 mg/kg/injection, schedule: Q01DX001 (ip), vehicle: saline 98 % of control

O=c1[nH]c2ccccc2nc1CBr
inactive: dose: 12.5 mg/kg/injection, schedule: Q04DX003 (ip), vehicle: saline with Tween-80 94 % of control | dose: 25.0 mg/kg/injection, schedule: Q04DX003 (ip), vehicle: saline with Tween-80 89 % of control | dose: 50.0 mg/kg/injection, schedule: Q04DX003 (ip), vehicle: saline with Tween-80 86 % of control
